Positions of bridges follow the written chain, without caps; N, C: chain ends. Non-standard residues stand in square brackets, D forms with d. Residues, ends and D or L forms follow the SMILES beside them.
Columns and labels:
[1] = target: T1, GDP-bound Gαs (Homo sapiens, UniProt P63092); assay: Bio-layer interferometry (BLI) binding kinetics
T1 construct: hexahistidine (N, cleaved yes); made in house; host or cells: Escherichia coli BL21(DE3)
Method: BLI experiments were performed using an OctetRED384 instrument from ForteBio. All experiments were performed at 25° C. using BLI buffer (10 mM HEPES pH 7.4, 150 mM NaCl, 1 mM MgCl2, 0.05% Tween-20, 0.1% DMSO, 0.2 mM GppNHp or GDP). Cyclic peptides were diluted to a series of concentrations in BLI buffer plus 10 μM Biotin. Assays were conducted in Greiner 384well, black, flat bottom polypropylene plates containing the protein solutions, BLI buffer plus 10 μM Biotin for dissociation, and serial dilutions of cyclic peptides to be tested.
Biotinylated proteins were immobilized on Streptavidin biosensors by dipping sensors into plate wells containing protein solutions at a concentration of 100-150 nM. Protein loading is around 2-3 nm. Sensors loaded with proteins were moved and dipped into wells with BLI buffer plus 10 μM Biotin to block unlabeled Streptavidin. Association-dissociation cycles of compounds were started by moving and dipping sensors to cyclic peptides dilutions and BLI buffer plus 10 μM Biotin wells alternatively. Association and dissociation times were carefully determined to ensure full association and dissociation.
Raw kinetic data collected were processed with the Data Analysis software provided by the manufacturer using single reference subtraction in which buffer-only reference was subtracted (For GN13 analysis). Because GD20 analogs have a low level of background binding, we used a double reference subtraction (buffer-only reference and non-protein-loading reference) method to calculate their kinetics values. The resulting data were analyzed based on a 1:1 binding model from which kon and koff values were obtained and then Kd values were calculated.

[2] = target: T2, Gαs (Homo sapiens, UniProt P63092); assay: GTPγS binding assay ([35S]GTPγS); type: biochemical; parameters: made in house; host or cells: Escherichia coli BL21(DE3)
Method: Gα proteins were diluted to 10 μM with dilution buffer (20 mM HEPES 7.5, 150 mM NaCl, 1 mM MgCl2, 2 mM DTT, and 20 μM GDP) and incubated with 5× stocks of cyclic peptides at room temperature for 2 hours. GTPγS binding was initiated by mixing with the reaction buffer at room temperature (50 nM [35S]GTPγS and 100 μM GTPγS in dilution buffer) at room temperature. At various time points, 10 μL of the sample was removed and mixed with 390 μL of ice-cold wash buffer (20 mM HEPES 7.5, 150 mM NaCl, 20 mM MgCl2). The mixture was filtered through a mixed cellulose membrane (25 mm, 0.22 μm). The membrane was washed by ice-cold wash buffer (500 μL×3), put in a 6-mL plastic vial and air-dried (room temperature 1.5 h). 5 mL of CytoScint-ES Liquid Scintillation Cocktail (MP Biomedicals) was added to each vial. After incubation overnight at room temperature, the vial was used for liquid scintillation counting with a LS 6500 Multi-Purpose Scintillation Counter. A standard curve was generated using [35S]GTPγS. The radioactive activity (Counts per minute) of the samples were converted to the GTPγS concentration. The GTPγS binding curves were fitted by the software GraphPad Prism using the following equation to calculate the apparent GTPγS binding rates (kapp): […]
in which “Y” is the concentration of GTPγS that bound to Gα protein at time “X” (minutes).
Target sequence in this assay (P63092 1-380 isoform P63092-2): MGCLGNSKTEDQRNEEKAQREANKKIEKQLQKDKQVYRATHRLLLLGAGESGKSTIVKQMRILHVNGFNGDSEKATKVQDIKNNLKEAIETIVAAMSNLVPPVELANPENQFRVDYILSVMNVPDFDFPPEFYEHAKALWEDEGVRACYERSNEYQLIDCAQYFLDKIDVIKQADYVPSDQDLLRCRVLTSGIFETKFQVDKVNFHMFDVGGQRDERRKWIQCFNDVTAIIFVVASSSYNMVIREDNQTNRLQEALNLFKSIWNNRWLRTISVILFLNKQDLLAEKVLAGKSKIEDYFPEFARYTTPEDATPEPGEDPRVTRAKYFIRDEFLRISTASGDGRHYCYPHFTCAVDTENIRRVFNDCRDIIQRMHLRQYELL

[3] = target: T2, Gαs; assay: Adenylyl cyclase activity assay in HEK293 cell membranes, β2AR stimulated by isoproterenol; type: biochemical; parameters: endogenous in cells; host or cells: HEK293 cell membranes; conditions: GTP/GDP 500/50 μM, 2 hours preincubation, 40 μM isoproterenol, read-out: IC50, inhibition of ISO-stimulated Gαs activity (cAMP)
Method: We sought to test the efficacy of GN13 in B2-adrenergic receptor (β2AR) mediated second messenger stimulation in cell membranes. Membrane anchored GDP-bound Gαs is inhibited by Gβγ in the resting state. It can undergo GPCR mediated GDP to GTP exchange upon agonist stimulation (Weis and Kobilka, 2018). The presence of GN13 could potentially capture the newly generated GTP-bound Gαs and inhibit its activation (FIG. 17E). To test this idea, we incubated cell membranes prepared from HEK293 cells with GN13 and examined cAMP accumulation with or without stimulation of β2-adrenergic receptor (β2AR) by isoproterenol (ISO).
GN13 inhibition of Gαs proteins in HEK293 cell membranes (FIG. 17F and FIG. 18F).
a. Cell membrane preparation: HEK293cells, GNAS KO HEK293 cells were plated two day before transfection at a density of 1M cells per 10 cm plate. […] The protein concentrations were measured using BCA, and were normalized to 750 μg/mL. […] The cAMP concentrations were measured by the LANCE Ultra cAMP kit. […]
A cAMP standard curve was generated in the same plate using the 50 μM cAMP standard in the kit. […] 10 μL of each diluted sample was mixed with 5 μL of 4× Eu-cAMP tracer and 5 μL of 4× ULight-anti-cAMP in a white, opaque Optiplate-384 microplate, incubated for 1 hour at room temperature, and the time-resolved fluorescence resonance energy transfer (TR-FRET) signals were read on a Spark 20M plate reader. […]
Target sequence in this assay (P63092 whole entry): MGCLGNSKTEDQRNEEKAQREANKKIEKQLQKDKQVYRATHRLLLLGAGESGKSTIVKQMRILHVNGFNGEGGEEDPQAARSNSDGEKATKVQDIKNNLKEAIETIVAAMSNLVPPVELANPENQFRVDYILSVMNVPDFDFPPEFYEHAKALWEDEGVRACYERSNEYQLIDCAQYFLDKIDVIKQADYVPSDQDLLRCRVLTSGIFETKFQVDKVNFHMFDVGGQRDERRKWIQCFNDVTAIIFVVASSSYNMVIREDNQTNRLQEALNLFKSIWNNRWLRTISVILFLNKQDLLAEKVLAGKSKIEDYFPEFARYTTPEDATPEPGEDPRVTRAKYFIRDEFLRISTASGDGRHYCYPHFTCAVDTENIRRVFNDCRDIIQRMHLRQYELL

binding to GDP-bound Gαs ([1]; highest concentration tested)	effect on the apparent rate of GTPγS binding (kapp) to Gαs [2]	IC50 [3] [µM]	SMILES	Kd ([1]; GDP/Gαs) [µM]	koff ([1]; GDP/Gαs) [s⁻¹]	kon ([1]; GDP/Gαs) [M⁻¹ s⁻¹]
–	–	–	CC[C@H](C)[C@@H]1NC(=O)[C@H](CC(C)C)NC(=O)[C@@H](Cc2ccc(O)cc2)NC(=O)CSC[C@@H](C(=O)NCC(N)=O)NC(=O)[C@@H]2CCCN2C(=O)[C@H](CC(C)C)NC(=O)[C@H](CC(N)=O)NC(=O)[C@H](CC(C)C)NC(=O)[C@H](C)NC(=O)[C@H](Cc2c[nH]c3ccccc23)NC(=O)[C@H](CCC(N)=O)NC(=O)[C@H](CCCNC(=N)N)NC(=O)[C@H](Cc2ccccc2)NC(=O)[C@H]([C@@H](C)O)NC1=O [GD20-F10L] ({CH2CO}-[dY]LITFRQWALNLPCG-NH2; thioether N-14)	0.0145 ± 0.0004	0.00358	247000
no detectable binding	increased	12.2 ± 2.51	CC[C@H](C)[C@@H]1NC(=O)[C@H](C)NC(=O)[C@H](Cc2ccc(O)cc2)NC(=O)[C@H](C(C)C)NC(=O)[C@H](CO)NC(=O)[C@H](CCC(=O)O)NC(=O)[C@H](Cc2ccccc2)NC(=O)[C@@H](Cc2ccc(O)cc2)NC(=O)CSC[C@@H](C(=O)NCC(N)=O)NC(=O)[C@H](CC(C)C)NC(=O)[C@H]([C@@H](C)O)NC(=O)CNC(=O)[C@H](Cc2c[nH]c3ccccc23)NC1=O [GN13] ({CH2CO}-[dY]FESVYAIWGTLCG-NH2; thioether N-13)	–	–	–
